These results are taken from ChEMBL document CHEMBL5338826, “Design and Synthesis of Inhibitors of the E3 Ligase SMAD Specific E3 Ubiquitin Protein Ligase 1 as a Treatment for Lung Remodeling in Pulmonary Arterial Hypertension” (J Med Chem, 2023).

In brackets after ≈: the same amount, converted by molar mass. Activity calls are given as the source filed them. No cut-off for these calls is given here. A value given as a limit tells only on which side of the number the result lay.

The target of data set [1] is T1, E3 ubiquitin-protein ligase SMURF1 (Homo sapiens, UniProt Q9HCE7). In words: Inhibition of SMURF1 (unknown origin) assessed as self-ubiquitination by TR-FRET/biochemical assay.
T1 sequence (Q9HCE7 whole entry): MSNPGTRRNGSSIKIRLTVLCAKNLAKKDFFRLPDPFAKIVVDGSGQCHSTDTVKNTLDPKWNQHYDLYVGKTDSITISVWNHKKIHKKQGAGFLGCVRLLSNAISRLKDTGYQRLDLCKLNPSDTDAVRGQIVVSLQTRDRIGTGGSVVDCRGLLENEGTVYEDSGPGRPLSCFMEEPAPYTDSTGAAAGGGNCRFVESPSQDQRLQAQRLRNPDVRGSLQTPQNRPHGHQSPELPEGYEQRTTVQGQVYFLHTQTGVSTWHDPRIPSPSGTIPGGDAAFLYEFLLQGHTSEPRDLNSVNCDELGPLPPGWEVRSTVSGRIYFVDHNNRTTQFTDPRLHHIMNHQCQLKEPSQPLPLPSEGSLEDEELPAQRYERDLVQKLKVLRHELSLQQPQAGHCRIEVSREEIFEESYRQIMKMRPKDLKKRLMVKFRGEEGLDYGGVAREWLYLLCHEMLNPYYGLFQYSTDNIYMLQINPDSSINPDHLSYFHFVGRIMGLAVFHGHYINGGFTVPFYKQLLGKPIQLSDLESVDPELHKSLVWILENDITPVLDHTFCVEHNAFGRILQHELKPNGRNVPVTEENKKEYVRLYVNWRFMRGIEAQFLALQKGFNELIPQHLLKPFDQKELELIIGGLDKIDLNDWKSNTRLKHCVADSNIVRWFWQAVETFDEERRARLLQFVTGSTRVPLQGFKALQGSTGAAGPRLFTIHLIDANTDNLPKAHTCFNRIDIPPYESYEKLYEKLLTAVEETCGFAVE
Data set [2] can be described thus: Metabolic stability in rat liver microsomes assessed as half life. It is filed as ADME, Microsome.
The target in data set [3] is T1, E3 ubiquitin-protein ligase SMURF1. In words: Stabilization of SMURF1 (unknown origin) assessed as decrease in auto-ubiquitination by measuring increase in protein level by cell-based assay.
Data set [4] can be described thus: Equilibrium solubility of the compound at pH 6.8. It is filed as physicochemical. To be noted: buffer.
For data set [5], the species on record is Rattus norvegicus. The experiment in a line: Anti-remodeling efficacy in hypoxia/Sugen 5416-induced pulmonary arterial hypertension rat model assessed as muscularized vessels in the pulmonary vasculature measured after 14 days relative to control. In kind it is functional. The following applies: time 14 day.
The species entered for data set [6] is Rattus norvegicus. In words: Anti-remodeling efficacy in hypoxia/Sugen 5416-induced pulmonary arterial hypertension rat model assessed as blocked of progression of phenotype of muscularization in the pulmonary vasculature measured after 14 days relative to control. It is filed as functional, organism-based. The following applies: time 14.0 day.
The species named for data set [7] is Rattus norvegicus. The experiment in a line: Anti-remodeling efficacy in hypoxia/Sugen 5416-induced pulmonary arterial hypertension rat model assessed as reversal of vessel muscularization in the pulmonary vasculature measured after 14 days relative to control. It is filed as functional, organism-based. The following applies: time 14.0 day.
A short description of data set [8]: Half life in rat at 3 mg/kg, po and 1 mg/kg, iv. The following applies: in vivo. It is filed as ADME, organism-based.
Data set [9] can be described thus: Oral bioavailability in rat at 3 mg/kg. In kind it is ADME, organism-based. The following applies: in vivo.
Data set [10] has as its system Rattus norvegicus. In words: Anti-remodeling efficacy in hypoxia/Sugen 5416-induced pulmonary arterial hypertension rat model assessed as muscularized vessels in the pulmonary vasculature at 10 mg/kg measured after 14 days relative to control. In kind it is functional. The following applies: time 14 day.
Data set [11] in a line: AUClast in rat at 3 mg/kg, po. In kind it is ADME, organism-based. The following applies: in vivo.
Data set [12] relates to Rattus norvegicus. The experiment in a line: Anti-remodeling efficacy in hypoxia/Sugen 5416-induced pulmonary arterial hypertension rat model assessed as muscularized vessels in the pulmonary vasculature at 10 mg/kg measured till end of the study relative to control. In kind it is functional.
A short description of data set [13]: Cmax in rat at 3 mg/kg, po. In kind it is ADME, organism-based. Also on record: dose 3 mg/kg, route po. To be noted: in vivo.
The nature of data set [14]: Plasma protein binding in rat. The following applies: read-out: PPB. In kind it is ADME, cell-free.
In data set [15] the target is E3 ubiquitin-protein ligase SMURF2 (Homo sapiens, UniProt Q9HAU4). In words: Inhibition of SMURF2 (unknown origin) assessed as self-ubiquitination by TR-FRET/biochemical assay.
Sequence of E3 ubiquitin-protein ligase SMURF2 (Q9HAU4 whole entry): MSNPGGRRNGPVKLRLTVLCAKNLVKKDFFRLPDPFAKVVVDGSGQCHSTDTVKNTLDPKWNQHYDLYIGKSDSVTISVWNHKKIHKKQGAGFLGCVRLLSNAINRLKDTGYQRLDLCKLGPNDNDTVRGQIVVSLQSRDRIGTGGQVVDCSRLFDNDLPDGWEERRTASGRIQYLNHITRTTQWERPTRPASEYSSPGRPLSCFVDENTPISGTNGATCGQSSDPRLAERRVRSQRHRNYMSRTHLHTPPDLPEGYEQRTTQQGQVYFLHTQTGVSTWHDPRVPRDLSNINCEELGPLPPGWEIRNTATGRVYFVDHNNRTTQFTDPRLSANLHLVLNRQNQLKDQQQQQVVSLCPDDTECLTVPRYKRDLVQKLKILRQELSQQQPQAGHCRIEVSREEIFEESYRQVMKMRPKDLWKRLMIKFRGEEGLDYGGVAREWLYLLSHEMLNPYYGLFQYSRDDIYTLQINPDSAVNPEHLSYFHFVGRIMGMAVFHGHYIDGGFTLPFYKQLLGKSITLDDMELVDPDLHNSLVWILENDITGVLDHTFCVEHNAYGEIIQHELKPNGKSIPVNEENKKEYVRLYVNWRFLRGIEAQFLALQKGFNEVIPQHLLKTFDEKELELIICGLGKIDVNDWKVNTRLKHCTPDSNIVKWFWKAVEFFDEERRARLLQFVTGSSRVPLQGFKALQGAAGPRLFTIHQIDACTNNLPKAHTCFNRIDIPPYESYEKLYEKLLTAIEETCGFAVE
Data set [16] can be described thus: Volume of distribution at steady state in rat at 3 mg/kg, po and 1 mg/kg, iv. To be noted: in vivo. It is filed as ADME, organism-based.
The subject of data set [17] is Rattus norvegicus. In words: Anti-remodeling efficacy in hypoxia/Sugen 5416-induced pulmonary arterial hypertension rat model assessed as reversal of vessel muscularization in the pulmonary vasculature at 3 mg/kg measured after 14 days relative to control. The following applies: time 14.0 day. In kind it is functional, organism-based.
Data set [18] has as its system Rattus norvegicus. The experiment in a line: Anti-remodeling efficacy in hypoxia/Sugen 5416-induced pulmonary arterial hypertension rat model assessed as blocked of progression of phenotype of muscularization in the pulmonary vasculature at 10 mg/kg measured after 14 days relative to control. To be noted: time 14.0 day. It is filed as functional, organism-based.
The subject of data set [19] is Rattus norvegicus. The experiment in a line: Anti-remodeling efficacy in hypoxia/Sugen 5416-induced pulmonary arterial hypertension rat model assessed as blocked of progression of phenotype of muscularization in the pulmonary vasculature at 3 mg/kg measured after 14 days relative to control. In kind it is functional, organism-based. To be noted: time 14.0 day.
In data set [20] the test system is Rattus norvegicus. The experiment in a line: Anti-remodeling efficacy in hypoxia/Sugen 5416-induced pulmonary arterial hypertension rat model assessed as reversal of vessel muscularization in the pulmonary vasculature at 10 mg/kg measured after 14 days relative to control. In kind it is functional, organism-based. To be noted: time 14.0 day.

Take `COc1ccc(-c2onc(C(=O)Nc3c(C)n(C)n(-c4ccccc4F)c3=O)c2C)c(C)c1`: the IC50 in data set [1] was 180 nM. Further, the half-life in [2] came to 45.2 min. Also, the concentration giving a half-maximal response (EC50) in data set [3] came out at 250 nM. Further, the thermodynamic solubility in [4] was determined as 280 µM (≈ 126 µg/mL).
As to `COc1cc2ccc3c(C(=O)Nc4c(C)n(C)n(-c5ccccc5)c4=O)noc3c2cc1OC`, the concentration for half-maximal inhibition (IC50) in [1] was over 10000 nM.
As for `Cc1c(C(=O)Nc2c(C)n(C)n(-c3ccccc3F)c2=O)noc1-c1ccc(Cl)cc1`, the concentration for half-maximal inhibition (IC50) in data set [1] was determined as 180 nM. Moreover, the half-life in data set [2] is 70.5 min. Also, the half-maximal effective concentration (EC50) in data set [3] stood at 580 nM. For the same compound, in [4], the thermodynamic solubility was 140 µM (≈ 61.7 µg/mL).
As for `NC(=O)c1ccc(-c2nc(-c3ccccn3)c(-c3ccc4c(c3)OCO4)[nH]2)cc1` [SB-431542], the Activity in the data set listed under Rattus norvegicus [5] was 15%. Besides, the outcome in the data set listed under Rattus norvegicus [6] was Active. Besides, in the data set filed under Rattus norvegicus [7], the outcome was inactive.
In the case of `COc1ccc(-c2cc(C(=O)Nc3c(C)n(C)n(-c4ccccc4)c3=O)no2)cc1`, the half-inhibitory concentration (IC50) in data set [1] was over 10000 nM. The 50% effective concentration (EC50) in data set [3] was over 22000 nM.
With `COc1ccc2c(c1)CCCc1c(C(=O)Nc3c(C)n(C)n(-c4ccccc4F)c3=O)noc1-2`, the concentration for half-maximal inhibition (IC50) in data set [1] turned out to be 200 nM. Also, in data set [3], the EC50 is 600 nM.
In data set [8], `Cc1c(C(=O)Nc2c(C)n(C)n(C3CCCCC3)c2=O)nnn1-c1ccc(C2CC2)cc1Cl` gave a half-life of 474 min. The compound also displayed a bioavailability in data set [9] of 82%. Moreover, the Activity with Rattus norvegicus [10] is reported as 10%; with Rattus norvegicus [12] it was 18%. Moreover, in [11], the AUClast is 7.38 µM·h. Moreover, the EC50 in data set [3] turned out to be 316 nM. Besides, the thermodynamic solubility in [4] turned out to be 190 µM (≈ 89.1 µg/mL). In addition, in [13], the highest level (Cmax) was 2010 nM. The fraction unbound in [14] is under 0.01. For the same compound, the IC50 in data set [15] is over 20000 nM. In addition, in data set [16], the Vdss worked out at 2.3 L/kg.
Regarding `Cc1c(C(=O)Nc2c(C)n(C)n(-c3ccccc3F)c2=O)noc1-c1cc(Cl)ccc1Cl`, in data set [1], the IC50 came to 280 nM. The EC50 in [3] was found to be 2500 nM.
Turning to `Cc1c(C(=O)Nc2c(C)n(C)n(-c3ccccc3F)c2=O)noc1-c1ccc(Cl)cc1Cl`, the concentration for half-maximal inhibition (IC50) in [1] turned out to be 29 nM. For the same compound, the half-life in [2] is 16.7 min. Moreover, the concentration giving a half-maximal response (EC50) in data set [3] worked out at 410 nM. The compound further had a solubility (thermodynamic) in data set [4] of 13 µM (≈ 6.18 µg/mL).
With `Cc1c(C(=O)Nc2c(C)n(C)n(-c3ccccc3F)c2=O)noc1-c1ccc(Cl)cc1F`, in data set [1], the IC50 stood at 700 nM. Also, the half-life in data set [2] was found to be 30.7 min. Moreover, in [3], the concentration for a half-maximal effect (EC50) is 1100 nM. The solubility (thermodynamic) in [4] worked out at 530 µM (≈ 243 µg/mL).
With `COc1ccc(-c2onc(C(=O)Nc3c(C)n(C)n(-c4ccccc4F)c3=O)c2C)cc1`, the IC50 in [1] is 1000 nM. Besides, the half-life in data set [2] was 15.8 min. For the same compound, the EC50 in data set [3] was 1600 nM. For the same compound, the solubility (thermodynamic) in data set [4] was 22 µM (≈ 9.6 µg/mL).
Take `COc1ccc2c(c1)CCc1c(C(=O)Nc3c(C)n(C)n(-c4ccccc4)c3=O)noc1-2`: the IC50 is 3000 nM in data set [1] and over 10000 nM in data set [15]. The half-maximal effective concentration (EC50) in [3] was found to be 4660 nM.
As to `COc1ccc2c(c1)CCCc1c(C(=O)Nc3c(C)n(C)n(-c4ccccc4)c3=O)noc1-2`, the IC50 in [1] was found to be 400 nM. Moreover, the EC50 in data set [3] came out at 1100 nM.
With `Cc1c(C(=O)Nc2c(C)n(C)n(-c3ccccc3F)c2=O)noc1-c1ccc(C2CC2)cc1Cl`, the half-life is 114 min in data set [8] and 18.9 min in [2]. The same compound came in with a bioavailability in [9] of 97%. Besides, the AUClast in [11] was determined as 11.6 µM·h. Besides, the outcome in the data set on Rattus norvegicus [17], in the data set with Rattus norvegicus [18], in the data set with Rattus norvegicus [19] and with Rattus norvegicus [20] was Active. The IC50 in data set [1] came to 11 nM. The concentration giving a half-maximal response (EC50) in [3] came out at 230 nM. In addition, the Cmax in data set [13] is 1080 nM. Besides, the fraction unbound in data set [14] was under 0.01. This compound also gave a Vdss in [16] of 1.5 L/kg.
Consider `Cc1c(C(=O)O)noc1-c1ccc(C2CC2)cc1Cl`, for which the half-life in data set [8] is 96 min. The same compound gave a bioavailability in [9] of 67%. This compound also came in with an AUClast in [11] of 2.78 µM·h. Further, the concentration giving a half-maximal response (EC50) in data set [3] was found to be 40 nM. The solubility (thermodynamic) in [4] is 24 µM (≈ 6.66 µg/mL). This compound also registered a Cmax in [13] of 541 nM. The fraction unbound in data set [14] was under 0.01. Besides, in [15], the half-maximal inhibitory concentration (IC50) was determined as 2900 nM. For the same compound, the Vdss in data set [16] worked out at 1.7 L/kg.
